Measured values taken from US9999619B2, “Piperidin-4-yl azetidine derivatives as JAK1 inhibitors” (Incyte Corporation, priority 2010, dated 2018).

Legend:
Assay type in all cases: biochemical
[1] = molecular target: human JAK1 (a.a. 837-1142) (Homo sapiens, UniProt P23458); assay: In vitro JAK kinase assay (HTRF, phosphorylation of a biotinylated peptide), JAK1; conditions: measured at 1 mM ATP
Procedure, shortened: (§1)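 N-terminal His-tagged catalytic domains, baculovirus-expressed in insect cells, phosphorylated a biotinylated peptide for 1 hr at room temperature. EDTA stop was followed by SA-APC and Eu-Py20 antibody for 40 minutes, with phosphopeptide read by HTRF.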

[2] = molecular target: human JAK1 (a.a. 837-1142); assay: as above; conditions: ratio of JAK2 IC50 to JAK1 IC50, measured at 1 mM ATP
Procedure, shortened: as §1

Jak2 (a.a. 828-1132) = Jak2 (a.a. 828-1132) (Homo sapiens (Human), UniProt O60674); assay: In vitro JAK kinase assay (HTRF, phosphorylation of a biotinylated peptide), JAK2; conditions: measured at 1 mM ATP
Sequence of Jak2 (a.a. 828-1132) (O60674 828-1132): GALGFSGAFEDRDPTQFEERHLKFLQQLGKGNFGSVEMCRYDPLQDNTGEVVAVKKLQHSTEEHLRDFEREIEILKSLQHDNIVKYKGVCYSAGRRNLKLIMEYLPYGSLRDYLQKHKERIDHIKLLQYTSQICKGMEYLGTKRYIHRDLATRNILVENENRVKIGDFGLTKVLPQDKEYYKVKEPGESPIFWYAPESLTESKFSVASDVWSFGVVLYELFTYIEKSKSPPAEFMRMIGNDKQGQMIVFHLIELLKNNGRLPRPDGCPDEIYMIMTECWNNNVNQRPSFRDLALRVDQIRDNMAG
Procedure, shortened: as §1

Row | IC50 [1] [nM] | IC50 Ratio JAK2/JAK1 [2] | IC50 (Jak2 (a.a. 828-1132)) [nM] | Structure (SMILES)
1 | ≤ 5 | 0.5 | ≤ 10 | N#CCC1(n2cc(-c3ncnc4[nH]ccc34)cn2)CN(C2CCN(C(=O)Nc3nc4ccccc4s3)CC2)C1 [Example 193, N-1,3-benzothiazol-2-yl-4-{3-(cyanomethyl)-3-[4-(7H-pyrrolo[2,3-d]pyrimidin-4-yl)-1H-pyrazol-1-yl]azetidin-1-yl}piperidine-1-carboxamide]
2 | ≤ 5 | 55 | 50 to 100 | CN(C)Cc1cc(C(=O)N2CCC(N3CC(CC#N)(n4cc(-c5ncnc6[nH]ccc56)cn4)C3)CC2)nc(C(F)(F)F)n1 [Example 370, {1-(1-{[6-[(dimethylamino)methyl]-2-(trifluoromethyl)pyrimidin-4-yl]carbonyl}piperidin-4-yl)-3-[4-(7H-pyrrolo[2,3-d]pyrimidin-4-yl)-1H-pyrazol-1-yl]azetidin-3-yl}acetonitrile]
3 | ≤ 5 | 11.0 | 10 to 50 | N#CCC1(n2cc(-c3ncnc4[nH]ccc34)cn2)CN(C2CCN(C(=O)c3cc(F)cc(F)c3)CC2)C1 [Example 3, {1-[1-(3,5-difluorobenzoyl)piperidin-4-yl]-3-[4-(7H-pyrrolo[2,3-d]pyrimidin-4-yl)-1H-pyrazol-1-yl]azetidin-3-yl}acetonitrile]
4 | ≤ 5 | 3.2 | ≤ 10 | COc1cccc(F)c1C(=O)N1CCC(N2CC(CC#N)(n3cc(-c4ncnc5[nH]ccc45)cn3)C2)CC1 [Example 39, {1-[1-(2-fluoro-6-methoxybenzoyl)piperidin-4-yl]-3-[4-(7H-pyrrolo[2,3-d]pyrimidin-4-yl)-1H-pyrazol-1-yl]azetidin-3-yl}acetonitrile]
5 | ≤ 5 | 5.5 | 10 to 50 | N#CCC1(n2cc(-c3ncnc4[nH]ccc34)cn2)CN(C2CCN(C(=O)Nc3ccccc3F)CC2)C1 [Example 169, 4-{3-(cyanomethyl)-3-[4-(7H-pyrrolo[2,3-d]pyrimidin-4-yl)-1H-pyrazol-1-yl]azetidin-1-yl}-N-(2-fluorophenyl)piperidine-1-carboxamide]
6 | ≤ 5 | 13.3 | 10 to 50 | N#CCC1(n2cc(-c3ncnc4[nH]ccc34)cn2)CN(C2CCN(C(=O)Nc3ccccc3OC(F)F)CC2)C1 [Example 164, 4-{3-(cyanomethyl)-3-[4-(7H-pyrrolo[2,3-d]pyrimidin-4-yl)-1H-pyrazol-1-yl]azetidin-1-yl}-N-[2-(difluoromethoxy)phenyl]piperidine-1-carboxamide]
7 | ≤ 5 | 12.7 | 10 to 50 | CN(C)Cc1cc(C(=O)N2CCC(N3CC(CC#N)(n4cc(-c5ncnc6[nH]ccc56)cn4)C3)CC2)cc(C(F)F)c1 [Example 375, {1-(1-{3-(difluoromethyl)-5-[(dimethylamino)methyl]benzoyl}piperidin-4-yl)-3-[4-(7H-pyrrolo[2,3-d]pyrimidin-4-yl)-1H-pyrazol-1-yl]azetidin-3-yl}acetonitrile]
8 | ≤ 5 | 3.5 | 10 to 50 | N#CCC1(n2cc(-c3ncnc4[nH]ccc34)cn2)CN(C2CCN(C(=O)c3ccc(-c4cc(F)cc(C#N)c4)c(F)c3)CC2)C1 [Example 128, 4′-[(4-{3-(cyanomethyl)-3-[4-(7H-pyrrolo[2,3-d]pyrimidin-4-yl)-1H-pyrazol-1-yl]azetidin-1-yl}piperidin-1-yl)carbonyl]-2′,5-difluorobiphenyl-3-carbonitrile]
9 | ≤ 5 | 3.8 | 10 to 50 | CS(=O)(=O)N1CCC(N2CC(CC#N)(n3cc(-c4ccnc5[nH]ccc45)cn3)C2)CC1 [Example 351, {1-[1-(Methylsulfonyl)piperidin-4-yl]-3-[4-(1H-pyrrolo[2,3-b]pyridin-4-yl)-1H-pyrazol-1-yl]azetidin-3-yl}acetonitrile]
10 | ≤ 5 | 6.5 | 10 to 50 | N#CCC1(n2cc(-c3ncnc4[nH]ccc34)cn2)CN(C2CCN(C(=O)c3ccc(O)c(Cl)c3)CC2)C1 [Example 84, {1-[1-(3-chloro-4-hydroxybenzoyl)piperidin-4-yl]-3-[4-(7H-pyrrolo[2,3-d]pyrimidin-4-yl)-1H-pyrazol-1-yl]azetidin-3-yl}acetonitrile]
11 | ≤ 5 | 3.2 | 10 to 50 | N#CCC1(n2cc(-c3ncnc4[nH]ccc34)cn2)CN(C2CCN(C(=O)c3ccccc3)CC2)C1 [Example 9, {1-(1-benzoylpiperidin-4-yl)-3-[4-(7H-pyrrolo[2,3-d]pyrimidin-4-yl)-1H-pyrazol-1-yl]azetidin-3-yl}acetonitrile]
12 | ≤ 5 | 8.3 | 10 to 50 | CC(C)COC(=O)N1CCC(N2CC(CC#N)(n3cc(-c4ncnc5[nH]ccc45)cn3)C2)CC1 [Example 390, isobutyl 4-{3-(cyanomethyl)-3-[4-(7H-pyrrolo[2,3-d]pyrimidin-4-yl)-1H-pyrazol-1-yl]azetidin-1-yl}piperidine-1-carboxylate]
13 | ≤ 5 | 6.3 | 10 to 50 | N#CCC1(n2cc(-c3ncnc4[nH]ccc34)cn2)CN(C2CCN(C(=O)c3ccc(F)c(F)c3F)CC2)C1 [Example 46, {3-[4-(7H-pyrrolo[2,3-d]pyrimidin-4-yl)-1H-pyrazol-1-yl]-1-[1-(2,3,4-trifluorobenzoyl)piperidin-4-yl]azetidin-3-yl}acetonitrile]
14 | ≤ 5 | 12.3 | 50 to 100 | N#CCC1(n2cc(-c3ncnc4[nH]ccc34)cn2)CN(C2CCN(C(=O)c3ccc(-c4ccc5ncccc5c4)c(F)c3)CC2)C1 [Example 2, {1-[1-(3-Fluoro-4-quinolin-6-ylbenzoyl)piperidin-4-yl]-3-[4-(7H-pyrrolo[2,3-d]pyrimidin-4-yl)-1H-pyrazol-1-yl]azetidin-3-yl}acetonitrile]
15 | ≤ 5 | 6.7 | 10 to 50 | N#CCC1(n2cc(-c3ncnc4[nH]ccc34)cn2)CN(C2CCN(C(=O)c3ccc(-c4ccc5cccnc5c4)c(F)c3)CC2)C1 [Example 134, {1-[1-(3-fluoro-4-quinolin-7-ylbenzoyl)piperidin-4-yl]-3-[4-(7H-pyrrolo[2,3-d]pyrimidin-4-yl)-1H-pyrazol-1-yl]azetidin-3-yl}acetonitrile]
